Measurements: PubChem BioAssay AID2060892 (Molecular Pharmacology Branch, DTP, NCI, 2025)

System: HOP-62 complex spheroids with HUVEC/MSC, viability
Test: Anticancer human tumor HOP-62 cell line growth inhibition [RAS];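 also: spheroids exposed to agents for seven days before readout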;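 as to viability, T/C: 100% = DMSO vehicle control viability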
Settings: for IC50: curve of first compound; for viability, T/C: stronger effect = lower value
In short: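 Multi-cell-type spheroids: tumor cells plus HUVEC endothelial cells and mesenchymal stem cells. RAS-pathway inhibitors were combined with targeted agents, each dosed in half-log steps down from clinical Cmax, or from 10 microM when Cmax was unknown.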

Which IC50 (second compound 0.000949 µM) does the source give for `CCc1c2c(nc3ccc(O)cc13)-c1cc3c(c(=O)n1C2)COC(=O)[C@]3(O)CC` + CCn1c(-c2cc(N3CCN(C)CC3)cnc2C(C)OC)c2c3cc(ccc31)-c1csc(n1)CC(NC(=O)C1CC1C)C(=O)N1CCCC(N1)C(=O)OCC(C)(C)C2 here?
The IC50 was 1.77 nM.

And the IC50 (second compound 0.003 µM)?
Its IC50 is 1.54 nM.

What about the IC50 (second compound 0.00949 µM) of the same compound?
The IC50 was 1.14 nM.

What about the IC50 (second compound 0.03 µM) of the same compound?
Its IC50 is < 0.949 nM.

And the IC50 (second compound 0.0949 µM)?
Its IC50 is < 0.949 nM.

And the IC50 (second compound 0.3 µM)?
The IC50 was < 0.949 nM.

What about the viability, T/C (second compound 0.000949 µM, first compound 0.000949 µM) of the same compound?
Its viability, T/C is 83.8%.

And the viability, T/C (second compound 0.000949 µM, first compound 0.003 µM)?
Its viability, T/C is 21.2%.

What about the viability, T/C (second compound 0.000949 µM, first compound 0.00949 µM) of the same compound?
The viability, T/C was 9.03%.

And the viability, T/C (second compound 0.000949 µM, first compound 0.03 µM)?
Its viability, T/C is 7.89%.

And the viability, T/C (second compound 0.000949 µM, first compound 0.0949 µM)?
The viability, T/C was 5.5%.

And the viability, T/C (second compound 0.000949 µM, first compound 0.3 µM)?
Its viability, T/C is 1.91%.

What about the viability, T/C (second compound 0.003 µM, first compound 0.000949 µM) of the same compound?
Its viability, T/C is 72.3%.

What about the viability, T/C (second compound 0.003 µM, first compound 0.003 µM) of the same compound?
Its viability, T/C is 18.9%.

And the viability, T/C (second compound 0.003 µM, first compound 0.00949 µM)?
The viability, T/C was 13.3%.

What about the viability, T/C (second compound 0.003 µM, first compound 0.03 µM) of the same compound?
The viability, T/C was 11.4%.

What about the viability, T/C (second compound 0.003 µM, first compound 0.0949 µM) of the same compound?
The viability, T/C was 7.41%.

What about the viability, T/C (second compound 0.003 µM, first compound 0.3 µM) of the same compound?
The viability, T/C was 4.35%.

What about the viability, T/C (second compound 0.00949 µM, first compound 0.000949 µM) of the same compound?
The viability, T/C was 55.1%.

What about the viability, T/C (second compound 0.00949 µM, first compound 0.003 µM) of the same compound?
The viability, T/C was 25.2%.

What about the viability, T/C (second compound 0.00949 µM, first compound 0.00949 µM) of the same compound?
The viability, T/C was 17.4%.

And the viability, T/C (second compound 0.00949 µM, first compound 0.03 µM)?
The viability, T/C was 13.7%.

What about the viability, T/C (second compound 0.00949 µM, first compound 0.0949 µM) of the same compound?
The viability, T/C was 11.1%.

And the viability, T/C (second compound 0.00949 µM, first compound 0.3 µM)?
The viability, T/C was 9.59%.

What about the viability, T/C (second compound 0.03 µM, first compound 0.000949 µM) of the same compound?
Its viability, T/C is 45.6%.

And the viability, T/C (second compound 0.03 µM, first compound 0.003 µM)?
Its viability, T/C is 32%.

What about the viability, T/C (second compound 0.03 µM, first compound 0.00949 µM) of the same compound?
Its viability, T/C is 21.1%.

And the viability, T/C (second compound 0.03 µM, first compound 0.03 µM)?
The viability, T/C was 15.6%.

What about the viability, T/C (second compound 0.03 µM, first compound 0.0949 µM) of the same compound?
Its viability, T/C is 13.1%.

What about the viability, T/C (second compound 0.03 µM, first compound 0.3 µM) of the same compound?
Its viability, T/C is 13.2%.

What about the viability, T/C (second compound 0.0949 µM, first compound 0.000949 µM) of the same compound?
Its viability, T/C is 34.5%.

What about the viability, T/C (second compound 0.0949 µM, first compound 0.003 µM) of the same compound?
The viability, T/C was 32.5%.

What about the viability, T/C (second compound 0.0949 µM, first compound 0.00949 µM) of the same compound?
Its viability, T/C is 19.7%.

What about the viability, T/C (second compound 0.0949 µM, first compound 0.03 µM) of the same compound?
Its viability, T/C is 14.7%.

What about the viability, T/C (second compound 0.0949 µM, first compound 0.0949 µM) of the same compound?
Its viability, T/C is 12.9%.

And the viability, T/C (second compound 0.0949 µM, first compound 0.3 µM)?
The viability, T/C was 13.6%.

What about the viability, T/C (second compound 0.3 µM, first compound 0.000949 µM) of the same compound?
Its viability, T/C is 37.8%.

What about the viability, T/C (second compound 0.3 µM, first compound 0.003 µM) of the same compound?
The viability, T/C was 25.2%.

And the viability, T/C (second compound 0.3 µM, first compound 0.00949 µM)?
Its viability, T/C is 18.5%.

What about the viability, T/C (second compound 0.3 µM, first compound 0.03 µM) of the same compound?
The viability, T/C was 15.8%.

And the viability, T/C (second compound 0.3 µM, first compound 0.0949 µM)?
Its viability, T/C is 21.9%.

And the viability, T/C (second compound 0.3 µM, first compound 0.3 µM)?
Its viability, T/C is 15.8%.
